Test results reported in ChEMBL document CHEMBL2010711, “Synthesis and comparative evaluation of 4-oxa- and 4-aza-podophyllotoxins as antiproliferative microtubule destabilizing agents” (Bioorg Med Chem Lett, 2012).
The source made the active and inactive calls.

Columns and labels:
[1] = test system: Paracentrotus lividus; assay: Antimitotic activity against Paracentrotus lividus embryo assessed as cleavage alteration at 2 fold less effective threshold concentration after 2.5 to 6 hrs; format: functional, organism-based
[2] = test system: Paracentrotus lividus; assay: Antimitotic activity against Paracentrotus lividus embryo assessed as concentration required to cause 100% cleavage arrest after 2.5 to 6 hrs; format: functional
[3] = test system: Paracentrotus lividus; assay: Microtubule destabilizing activity in Paracentrotus lividus embryo assessed as concentration required to cause 100% embryo spinning after 15 mins to 20 hrs; format: functional
[4] = test system: Paracentrotus lividus; assay: Antimitotic activity against Paracentrotus lividus embryo assessed as cleavage arrest at 2 fold less effective threshold concentration after 2.5 to 6 hrs; format: functional, organism-based
[5] = test system: Paracentrotus lividus; assay: Microtubule destabilizing activity in Paracentrotus lividus embryo assessed as embryo spinning at 2 fold less effective threshold concentration after 15 mins to 20 hrs; format: functional, organism-based
[6] = test system: Paracentrotus lividus; assay: Antimitotic activity against Paracentrotus lividus embryo assessed as concentration required to cause 100% cleavage alteration after 2.5 to 6 hrs; format: functional

Compound: COc1ccc2c(c1)C(c1cc(OC)c(OC)c(OC)c1)C1=C(COC1=O)O2 (configuration not stated)
- Activity [1]: inactive
- EC [2]: 2000 nM
- EC [3]: 5000 nM
- Activity [4]: inactive
- Activity [5]: inactive
- EC [6]: 100 nM

Compound: COc1ccc2c(c1)C(c1cc(OC)c3c(c1)OCO3)C1=C(COC1=O)O2 (configuration not stated)
- Activity [1]: inactive
- EC [2]: 200 nM
- EC [3]: 2000 nM
- Activity [4]: inactive
- Activity [5]: inactive
- EC [6]: 50 nM

Compound: COc1cc([C@H]2C3=C(COC3=O)Nc3cc4c(cc32)OCO4)cc(OC)c1OC
- Activity [1]: inactive
- Activity [4]: inactive
- Activity [5]: inactive

Compound: COc1ccc2c(c1)NC1=C(C(=O)OC1)C2c1cc(OC)c2c(c1)OCCO2 (configuration not stated)
- Activity [1]: inactive
- EC [2]: 50 nM
- EC [3]: 1000 nM
- Activity [4]: inactive
- Activity [5]: inactive
- EC [6]: 10 nM

Compound: COc1ccc2c(c1)NC1=C(C(=O)OC1)C2c1cc(OC)c(OC)c(OC)c1 (configuration not stated)
- Activity [1]: inactive
- EC [2]: 500 nM
- EC [3]: 500 nM
- Activity [4]: inactive
- Activity [5]: inactive
- EC [6]: 50 nM
